We go through 13 compounds from US8372850B2, “Aminopyridines and aminopyrimidines useful as inhibitors of protein kinases” (Vertex Pharmaceuticals Incorporated, priority 2006, dated 2013).

A value given as a limit tells only on which side of the number the result lay.

For one assay, the target named is T1, GSK-3β(AA 1-420) (Homo sapiens, UniProt P49841).
T1 construct: GSK-3β(AA 1-420)
T1 sequence (P49841 whole entry, species assumed, the tested form may be a part): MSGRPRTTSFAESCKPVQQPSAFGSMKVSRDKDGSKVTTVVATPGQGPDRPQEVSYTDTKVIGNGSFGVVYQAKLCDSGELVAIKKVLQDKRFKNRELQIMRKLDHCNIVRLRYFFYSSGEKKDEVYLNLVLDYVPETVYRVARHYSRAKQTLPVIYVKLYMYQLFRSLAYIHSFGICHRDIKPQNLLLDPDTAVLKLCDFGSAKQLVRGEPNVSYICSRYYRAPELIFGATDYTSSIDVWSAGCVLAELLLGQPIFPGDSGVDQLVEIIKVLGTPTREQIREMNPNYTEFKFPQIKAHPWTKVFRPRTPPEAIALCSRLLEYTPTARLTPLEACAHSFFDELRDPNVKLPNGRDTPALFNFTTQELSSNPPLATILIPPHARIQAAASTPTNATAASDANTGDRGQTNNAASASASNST
Briefly: GSK-3 Inhibition Assay (standard coupled enzyme system). In kind it is biochemical. The following applies: 20 μM ATP, 300 μM peptide, 20 nM GSK-3β, 30° C. The procedure: Compounds of the present invention were screened for their ability to inhibit GSK-3β(AA 1-420) activity using a standard coupled enzyme system (Fox et al., Protein Sci. 1998, 7, 2249). Reactions were carried out in a solution containing 100 mM HEPES (pH 7.5), 10 mM MgCl2, 25 mM NaCl, 300 μM NADH, 1 mM DTT and 1.5% DMSO. Final substrate concentrations in the assay were 20 μM ATP (Sigma Chemicals, St Louis, Mo.) and 300 μM peptide (American Peptide, Sunnyvale, Calif.). Reactions were carried out at 30° C. and 20 nM GSK-3β. Final concentrations of the components of the coupled enzyme system were 2.5 mM phosphoenolpyruvate, 300 μM NADH, 30 μg/ml pyruvate kinase and 10 μg/ml lactate dehydrogenase.
An assay stock buffer solution was prepared containing all of the reagents listed above with the exception of ATP and the test compound of the present invention. The assay stock buffer solution (175 μl) was incubated in a 96 well plate with 5 μl of the test compound of the present invention at final concentrations spanning 0.002 μM to 30 μM at 30° C. for 10 min. Typically, a 12-point titration was conducted by preparing serial dilutions (from 10 mM compound stocks) with DMSO of the test compounds of the present invention in daughter plates. The reaction was initiated by the addition of 20 μl of ATP (final concentration 20 μM). Rates of reaction were obtained using a Molecular Devices Spectramax plate reader (Sunnyvale, Calif.) over 10 min at 30° C. The Ki values were determined from the rate data as a function of inhibitor concentration.
For orientation: Ki means a measure of affinity in units of concentration, obtained from inhibition or displacement. Read a low Ki as tighter binding. For the compound `Cc1cc(Nc2cc(C3CNC3)nc(-c3ccccc3Cl)n2)n[nH]1` [Compound I-12, 6-(Azetidin-3-yl)-2-(2-chlorophenyl)-N-(5-methyl-1H-pyrazol-3-yl)pyrimidin-4-amine], the Ki was in the range of 50 to 500 nM.
On the same count and under the same terms, for `Fc1cnc2[nH]nc(Nc3cc(N4CCC4)nc(-c4ccccc4Cl)n3)c2c1` [Compound I-3] the value was less than 50 nM; for `Cc1cc(Nc2cc(N3CC(F)(C4CC4)C3)nc(-c3ccccc3Cl)n2)n[nH]1` [Compound I-5], 50 to 500 nM; for `Cc1cc(Nc2cc(N3CCC3)nc(-c3ccccc3Cl)n2)n[nH]1` [Compound I-1, 6-(Azetidin-1-yl)-2-(2-chlorophenyl)-N-(5-methyl-1H-pyrazol-3-yl)pyrimidin-4-amine], 50 to 500 nM.
Still for that read-out and setting: for `OC1(C2CC2)CN(c2cc(Nc3n[nH]c4ncc(F)cc34)nc(-c3ccccc3Cl)n2)C1` [Compound I-11] the value was less than 50 nM.
As to `OC1(C2CC2)CN(c2cc(Nc3n[nH]c4ccc(F)cc34)nc(-c3ccccc3Cl)n2)C1` [Compound I-10], the inhibition constant Ki lay in the range of 50 to 500 nM.
The same measure, in the same setting: for `Cc1cc(Nc2cc(N3CC(F)(F)C3)nc(-c3ccccc3Cl)n2)n[nH]1` [Compound I-4] the value was 50 to 500 nM; for `Fc1cnc2[nH]nc(Nc3cc(N4CC(F)(C5CC5)C4)nc(-c4ccccc4Cl)n3)c2c1` [Compound I-9], less than 50 nM; for `Cc1cnc(Nc2cc(N3CCC3)nc(-c3ccccc3Cl)n2)s1` [Compound I-2], less than 50 nM.
Still for that read-out and setting: as for `Cc1cc(Nc2cc(N3CC(O)(C(C)(C)C)C3)nc(-c3ccccc3Cl)n2)n[nH]1` [Compound I-8], the figure is 1000 to 5000 nM.

The same assay, now with this note: range printed with mixed units (500 nM to 1 uM); 20 μM ATP, 30° C.
Consider `Cc1cc(Nc2cc(N3CC(C)(O)C3)nc(-c3ccccc3Cl)n2)n[nH]1` [Compound I-7], for which the Ki lay within 500 to 1000 nM.
Compound `Cc1cc(Nc2cc(N3CC(O)(C4CC4)C3)nc(-c3ccccc3Cl)n2)n[nH]1` [Compound I-6] had a Ki of 500 to 1000 nM.

Another assay has as its system rat brains after transient middle cerebral artery occlusion (MCAO).
Assay: not given
To be noted: cited from earlier work.
In the case of “IGF-1: IGF-1 (insulin growth factor-1), a known GSK-3 inhibitor”, the infarct size entry was “reduced infarct size”.
